Columns and labels:
[1] = tested on: rats given streptozotocin; experiment: Relief of onset of streptozotocin-induced diabetes; assay type: in vivo, rat; details: male SD rats, streptozotocin 50 mg/kg i.v.; 10 mg/kg/day oral, 14 days from 24 hours after; Mean ± SE
Description: Eighteen male Wistar rats weighing about 200 g were divided into 3 groups at random. To the animals of 2 groups, 45 mg/kg of streptozotocin was intravenously administered. One of these groups was regarded as a control group, while the other was regarded as the Compound-6 administration group. To the remaining 1 group which was regarded as the normal control group, a 1/10 M citrate buffer (pH 3.5) […] was intravenously administered. Immediately after the administration of streptozotocin, a suspension of Compound-6 in acacia was orally administered once a day continuously for 10 days in a dose of 20 mg/kg/day. To other groups, an acacia solution alone was administered. After fasting for 6 hours after the final administration, blood was collected from the heart of each animal and the blood glucose level and the blood insulin level were measured. As the data given in Table 7a show, the oral administration of Compound-6 inhibited an increase in the blood glucose level and a decrease in the blood insulin level.
Eighteen male SD rats weighing about 250 g were divided into 3 groups at random. […] To the normal control group and the streptozotocin control group, the acacia solution alone was administered orally. After fasting for 6 hours after the final administration, blood was collected from the heart of each animal and the blood glucose level and the blood insulin level were measured. As the data given in Table 7b show, the oral administration of Compound-5 inhibited an increase in the blood glucose level and a decrease in the blood insulin level.

[2] = tested on: male Wistar rats; experiment: Oral administration of Compound-5 to rats: toxicity and Compound-1 in the blood
Description: Male Wistar rats (n=4) weighing about 200 g were employed and the concentration of Compound-1 contained in the serum was expressed in mean±SE (FIG. 9).
In FIG. 9, open circles show a case wherein Compound-5 was solubilized with HCO-60 and orally administered in a dose of 2 mg/kg.
Solid circles show a case wherein Compound-5 was suspended in an acacia solution and orally administered in a dose of 20 mg/kg. Per part of the serum collected with the passage of time, ethanol containing 1% of acetic acid was added and the mixture was allowed to stand in the dark at room temperature for 7 days. Then Compound-1 was determined by high performance liquid chromatography.
Open squares show a case wherein Compound-5 was suspended in an acacia solution and orally administered. Then the blood was collected at definite points and Compound-1 was determined by high performance liquid chromatography immediately thereafter. […] Separately, Compound-5 suspended in an acacia solution was orally administered to rats having been cannulated into the portal vein. Then the portal blood was collected with the passage of time and Compound-1 was determined.

[3] = tested on: male ICR and ddY mice; experiment: Serum total cholesterol lowering effect in mice; assay type: in vivo, mouse; details: 8 days; for Serum total cholesterol, % change: vs control; for Serum total cholesterol: Mean±SE
Source text: Effect of serum cholesterol lowering agents varies among animals. Namely, some agents which are effective on a certain animal exert […] on others. For example, compactin, which is an HMG CoA reductase inhibitor, cannot lower the serum total cholesterol level when administered to rodents such as rat or mouse. This is because even though HMG CoA reductase is inhibited in the rodent liver, the enzyme is biosynthesized in an amount in excess of that for compensating the inhibition so that the inhibitory effect is negated. Accordingly, it is favorable to calibrate the effect of lowering serum total cholesterol level in as many animals as possible. Concerning the effect of the compounds of the present invention on the serum total cholesterol level, an assay was made with the use of mice. After adding these compounds to a standard powdery feed for rat and mouse, the resultant mixtures were molded into pellets and given for 8 days to male ICR and ddY mice aged 5 weeks. In the afternoon of the day 8, the blood of each animal was collected from the heart and the total cholesterol in the serum was determined. The doses were determined as the maximum dose, in which body weight gain was not suppressed after orally administering for 1 week, and as the ¼ dose thereof.
Each value is represented in Mean±SE (n=10). a) In the case of Compound-1, the control group consisted of 23 animals while the 0.04% and 0.01% groups each consisted of 12 animals.

[4] = tested on: hereditary obese diabetic mice ob/ob and db/db; details: oral; cited from earlier work
[5] = tested on: patients; details: at the normal dose; cited from earlier work

Compound: CC(=O)Oc1c(Cl)c(C)c(C=O)c(O)c1CC=C(C)C=CC1(C)C(C)CCC(=O)C1C (stereo not drawn) [Compound-5, acetylASC]
- Blood glucose [1]: 237.2 ± 26.31 mg/dL
- Serum IRI [1]: 15.5 ± 2.16 mU/ml
- time within which all of the rats died following administration ([2]; 2 mg/kg oral, solubilized with HCO-60, n=4): ≤ 1 h
- lethality ([2]; rat, suspended in a 2% acacia solution, 200 mg/kg): not killed
- free Compound-1 in the blood after administration of Compound-5 ([2]; suspended in acacia solution, oral, determined immediately by HPLC): no free Compound-1 was detected
- Serum total cholesterol, % change ([3]; 0.01% in feed): −13%
- Serum total cholesterol ([3]; 0.01% in feed): 132 ± 6.1 mg/dL
- Serum total cholesterol, % change ([3]; 0.04% in feed): −27%
- Serum total cholesterol ([3]; 0.04% in feed): 117 ± 3.3 mg/dL

Compound: Cc1cc2c(cc1C1(c3ccc(C(=O)O)cn3)CC1)C(C)(C)CCC2(C)C [LG100268]
- blood glucose levels, serum neutral fat levels and serum insulin levels [4]: drastically lower

Compound: C=C(c1ccc(C(=O)O)cc1)c1cc2c(cc1C)C(C)(C)CCC2(C)C [LGD1069]
- blood glucose levels, serum neutral fat levels and serum insulin levels [4]: drastically lower

Compound: Cc1c(C)c2c(c(C)c1O)CCC(C)(COc1ccc(CC3SC(=O)NC3=O)cc1)O2 (stereo not drawn) [troglitazone]
- patients with hepatopathy [5]: about 2%

— patent US6605639B1, “Ligands of nuclear receptor” (Nuclear Receptor Research, Ltd., priority 1998, dated 2003)
